The text below walks through data of patent publication US12390485B2, “Compounds and methods for suppressing an immune response to substances containing polyethylene glycol” (aAb Therapeutics, LLC, priority 2020, dated 2025).

The subject of experiment [1] is anti-PEG antibody response. Briefly: Prophylaxis model: anti-PEG antibody response in PEG-naïve mice immunized with PEG-KLH (serum ELISA). It counts as in vivo, BALB/c mice. On the procedure: Pre-immunization blood samples were collected by retroorbital bleeding on Day −5. All other blood draws were collected on the days indicated. For testing, pools of serum from each group (n=5) were generated by mixing equal volumes of serum from each mouse in the group. Treatments were as outlined below.
(§1) ELISAs were carried out as follows. Plates were coated overnight at 4° C. with 0.5 mcg antigen in 100 uL sodium carbonate coating buffer, then washed twice with PBS and blocked with 300 uL Blocking Buffer (nonfat dry milk-PBS (5% w/v) or 1× fish gel (Rockland immunochemicals)) at room temperature for 1 hr. […] After washing 3× for 5 minutes each with PBS, 100 uL TMBE was added to each well and a kinetic read taken for 5 minutes. Plates were allowed to continue the color development reaction for a total of 30 minutes at which time 100 uL stop solution was added and plates read. […]
In the present experiment, we first studied the anti-PEG IgM antibody response. […] Anti-PEG IgM antibodies were then measured against PEG-BSA by ELISA from bleeds collected on Day −5 and Day 9 (serum dilution 1:500)(FIG. 2).
In the present experiment, detection of IgG antibodies on Day 9 is not generally expected as this antibody subclass generally takes two weeks or more to emerge after immunization. […] The anti-PEG IgG response was assessed by ELISA as described above, using a serum dilution of 1:500.

Experiment [2] deals with anti-PEG antibody response. Briefly: Treatment model: mice with existing anti-PEG antibody response from PEG-KLH (serum ELISA). It counts as in vivo, BALB/c mice. The settings on record: PEG alone before and after PEG-KLH boosting (P/P), Day 21 and Day 28; bleed Day 30; serum 1:500; FIG. 6.
Excerpt: Male BALB/c mice (aged 6-8 weeks) were immunized intraperitoneally (i.p.) with PEG conjugated to KLH (PEG-KLH) using Complete Freund's adjuvant on Day 1 (50 mcg) and boosted with the same conjugate using Incomplete Freund's adjuvant on Day 18 (25 mcg). Pre-immunization blood samples were collected by retroorbital bleeding on Day −5. All other blood draws were collected on the days indicated. For testing, pools of serum from each group (n=5) were generated by mixing equal volumes of serum from each mouse in the group. Treatments were as outlined below.
as §1
In this treatment scenario, to generate anti-PEG antibodies prior to treatment, mice were first immunized with PEG-KLH conjugate on Day 0 and boosted on Day 22 (FIG. 5). […] Anti-PEG IgG antibodies were measured on Day 30 by ELISA as indicated above (serum diluted 1:500). […]
In general terms: In an ELISA, binding on a coated surface is turned into a signal by an enzyme label.

For MeO-23PEG-Ethanolamine, the “anti-PEG IgG antibodies (ELISA)” value in experiment [1] (treatment Day 0 and Day 7, additional PEG-KLH immunization Day 22, bleed Day 26, serum 1:500, FIG. 4) is reported as “readily detected”. For the same substance, the “anti-PEG IgM antibodies (ELISA against PEG-BSA)” value in experiment [1] (treatment i.p. Day 0 and Day 7, PEG-KLH Day 1, bleed Day 9, pooled serum 1:500, FIG. 3) is recorded as “readily detected”. Moreover, the “anti-PEG IgG antibodies” value in experiment [2] is recorded as “had no effect on anti-PEG IgG antibodies”.
